According to ChEMBL document CHEMBL1255319, “Predictive values of the human immunodeficiency virus phenotype and genotype and of amprenavir and lopinavir inhibitory quotients in heavily pretreated patients on a ritonavir-boosted dual-protease-inhibitor regimen” (Antimicrob Agents Chemother, 2008):
In brackets after ≈: the same amount, converted by molar mass.

Key:
[1] = test system: Human immunodeficiency virus 1; test: Antiviral activity against HIV1 infected in human; type: functional
[2] = test system: Human immunodeficiency virus; test: Antiviral activity in HIV infected in patient having Cmin-corrected GIQ value > 75 assessed as viral copies; type: functional
[3] = Inhibitory quotient, ratio of fCmin to IC90 for HIV1 infected in patient at 600 mg, BID
Homo sapiens = organism: Homo sapiens; test: fCmin in HIV1-infected patient at 600 mg, BID measured on week 2 by HPLC; details: in vivo
[4] = Inhibitory quotient, ratio of Cmin to IC90 for HIV1 infected in patient in presence of human serum at 600 mg, BID
[5] = test system: Human immunodeficiency virus 1; test: Antiviral activity against HIV1 infected in human in presence of human serum; type: functional
[6] = test system: Human immunodeficiency virus; test: Antiviral activity in HIV infected in patient having Cmin-corrected GIQ value < 75 assessed as viral copies; type: functional

CC(C)CN(C[C@@H](O)[C@H](Cc1ccccc1)NC(=O)O[C@H]1CCOC1)S(=O)(=O)c1ccc(N)cc1 [AMPRENAVIR]
IC90 [1]: 0.0578 µg/mL (≈ 0.114 µM)
log10cfu [2]: 1.23 log10 copies/ml
Ratio [3]: 2.5
fCmin (Homo sapiens): 177 ng/mL
Ratio [4]: 3.6
IC90 [5]: 0.453 µg/mL
log10cfu [6]: 0.19 log10 copies/ml
